Data set [1] can be described thus: Pharmacokinetics of YM-08 in plasma and brain, CD1 mice. It counts as in vivo, mouse. As for the experimental part: The initial pharmacokinetics (PK) of YM-01 and YM-08 were tested in CD1 mice. […] After a single 6.6 mg/kg dose delivered i.v., the peak brain concentration of YM-08 was 4 μg/g (FIG. 7B) and the ratio in the brain:plasma (B/P) ratio was approximately 0.25 for 18 hrs (FIG. 7C). […] It is not yet clear how much tau levels need to be reduced to achieve therapeutic effects in disease models, but the area-under-the-curve (AUCinf) for YM-08 in the brain was 0.26 μg·hr/g and the AUCinf in plasma was 13.6 μg·hr/mL.
Female CD-1 mice (25-30 g in body weight) were purchased from Charles River Laboratories (Wilmington, Mass.). Mice were treated with 6 mg/kg YM-08 through the tail-vein injection. The plasma and brain were collected at 0.016, 0.08, 0.16, 0.25, 0.5, 1, 2, 4, 6, 13, 18, 24 and 48 h after drug administration. Whole blood samples were drawn through the cardiac puncture using a heparinized syringe with a 22 gauge needle, followed by centrifugation at 3,000 g for 10 min at 4° C. to obtain plasma. Collected tissues were washed with PBS, immediately frozen using liquid nitrogen, and stored at −80° C. until further analysis. Tissue homogenates were prepared by adding PBS (1:5 w/v, homogenate/PBS) and homogenization for 3 min. Compound was extracted from 100 μL of sample by adding 300 μL of acetonitrile containing 50 ng/mL IS, followed by vortexing for 3 min. The supernatant was collected and subjected to LC-MS/MS analysis.
The separation of YM-08 and internal standard was performed using Agilent 1200 HPLC system (Agilent Technologies, Santa Clara, Calif.) and Zobarx SB-C18 column (2.1×50 mm, 3.5 μm) (Agilent Technologies). […] The compounds were eluted with an fixed gradient of 20% solvent A and 80% of solvent B. Solvent A consisted of 0.1% (v/v) glacial acetic acid in water and solvent B consisted of 0.1% (v/v) glacial acetic acid in acetonitrile. After injecting 10 μl of samples into HPLC system, the elution was performed over 2 min at a flow rate of 0.4 ml/min. The YM-08 and MKT-077 eluents were detected using QTRAP 3200 mass spectrometer (Applied Biosystems/MDS Sciex, Foster City, Calif.) equipped with an electrospray ionization source (ESI). The temperature of ESI was set at 650° C. and curtain gas, gas 1, and gas 2 were set to 30, 50, and 50 units, respectively. A positive voltage at 5500 V was applied through ESI to convert the eluents to ions in the form of MH+. The ions were detected using a MRM mode. The ion transitions from the precursor ion (m/z 368) to the fragment ion (m/z=222) and from the precursor ion (m/z 396) to the fragment ion (m/z=175) were used to detect YM-08 and IS, respectively.

Data set [2] relates to phospho- and total tau in brain slices from transgenic P301L tau mice (Tg4510). The data set is described as follows: Tau levels in transgenic brain slice cultures. The format is cell-based, mouse. As to conditions: 30 and 100 μM, 6 hours. As for the experimental part:
YM-08 activity in a more physiological system was tested. Brain slice cultures from transgenic mice that express mutated tau were treated for 6 hours with YM-08 and the levels of total- and pS396/404 tau measured by Western blots. […] To test whether YM-08 might selectively reduce tau after microtubule disruption, brain slices were cultured from wild type mice and treated them with YM-08 plus the microtubule destabilizer, nocodazole. […] Together, these studies add to growing evidence that Hsp70 selectively identifies tau variants that are not associated with the normal microtubule network, likely minimizing their aggregation and proteotoxicity.

Data set [3] is described as follows: t1/2 in tau activity screen table. The format is in vitro ADME. As to conditions: liver microsomes; matrix not stated. (Liver microsomes are vesicles of endoplasmic reticulum, rich in cytochrome P450 enzymes.)
The target of a further data set is T1, human Hsc70NBD (Homo sapiens, UniProt P11142).
T1 construct: made in house
T1 sequence (P11142 2-386 limits assumed): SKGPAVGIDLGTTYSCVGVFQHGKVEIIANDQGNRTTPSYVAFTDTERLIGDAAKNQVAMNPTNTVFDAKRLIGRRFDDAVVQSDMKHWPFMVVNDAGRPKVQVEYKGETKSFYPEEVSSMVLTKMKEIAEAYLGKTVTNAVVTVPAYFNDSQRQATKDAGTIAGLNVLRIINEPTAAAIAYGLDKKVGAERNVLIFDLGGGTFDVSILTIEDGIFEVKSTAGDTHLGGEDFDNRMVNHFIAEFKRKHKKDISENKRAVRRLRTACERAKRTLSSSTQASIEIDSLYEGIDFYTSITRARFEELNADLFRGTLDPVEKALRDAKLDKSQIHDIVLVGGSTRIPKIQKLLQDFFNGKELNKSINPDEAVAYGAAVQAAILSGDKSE
The data set is described as follows: Biolayer interferometry (Octet Red), Hsc70NBD. It counts as binding. As to conditions: immobilized biotinylated Hsc70NBD. As to the method:
Binding of MKT-077 analogs to immobilized Hsp70 was evaluated using a competitive ELISA. In this established assay, a biotinylated version of MKT-077 is bound to immobilized human Hsc70 (HSPA8) and potential competitors are tested for their ability to block the interaction. […] As further controls, the truncated compounds YM-02, YM-03, YM-04 and YM-07 were tested.
Biotinylated human Hsc70NBD or full length Hsp72 were first immobilized on super streptavidin biosensors (ForteBio, 18-5057) as follows: biosensors were soaked with MG buffer (100 mM Tris base, 20 mM KCl, 6 mM MgCl2, 0.01% Triton X-100, pH 7.4) for 10 min before moving them to wells either containing 200 μL […] biotinylated proteins or […] biocytin for 60 min. The free streptavidin sites were subsequently quenched with […] biocytin for 10 min. The biosensors were washed with MG buffer for 5 min prior to beginning the binding experiments. The association and disassociation steps were carried out in MG buffer with a constant 10% DMSO concentration. All steps were performed at room temperature and with 1000 rpm rotary shaking. […] The apparent affinities of YM-08 for Hsc70NBD and Hsp72 were calculated from both equilibrium measurements and global fits of the kon and koff values, yielding similar values.
On the technique in general: BLI is a label-free optical method that tracks binding on a fibre tip over time.

A short description of data set [4]: Liver microsome stability. It counts as in vitro ADME. Particulars: human, liver microsomes.
Data set [5] has as its target yeast Hsp70 (Ssa1p) and Hlj1p (Saccharomyces cerevisiae, UniProt P10591). Nature of the data set: Single turnover ATPase assay. The format is biochemical. As to the method: Next, the effect of chaperone functions by binding of YM-08 to Hsp70 was investigated. […] This profile is shared with other allosteric Hsp70 inhibitors. As another test of chaperone function, the effects of the compounds on the binding of Hsp70 to a misfolded protein were measured. In previous work, MKT-077 stabilized the interaction between prokaryotic Hsp70 (DnaK) and denatured luciferase. Briefly, this assay involves immobilizing unfolded luciferase in microtiter plates and measuring binding to DnaK. […] To explore whether YM-08 might also enhance binding of Hsp70 to a more physiologically relevant substrate, binding of tau to immobilized human Hsc70 was measured.
Single turnover ATPase assays were performed as previously described in, e.g., Fewell, et al., J. Biol. Chem., 279:51131-51140 (2004), and Chiang, et al., Bioorg. Med. Chem., 17:1527-1533 (2009). Briefly, the yeast Hsp70, Ssa1p (about 0.2 μM), was prebound to α-[32P]ATP. The hydrolysis of ATP in the presence or absence of an equimolar amount of Hlj1 was measured by monitoring the generation of α-[32P]ADP by thin layer chromatography (TLC).

Molecules are shown by their SMILES. Where “and” joins values, the source holds several entries; their conditions need not be identical. Equal entries are not always repeated.

Sequence of yeast Hsp70 (Ssa1p) and Hlj1p (P10591 whole entry): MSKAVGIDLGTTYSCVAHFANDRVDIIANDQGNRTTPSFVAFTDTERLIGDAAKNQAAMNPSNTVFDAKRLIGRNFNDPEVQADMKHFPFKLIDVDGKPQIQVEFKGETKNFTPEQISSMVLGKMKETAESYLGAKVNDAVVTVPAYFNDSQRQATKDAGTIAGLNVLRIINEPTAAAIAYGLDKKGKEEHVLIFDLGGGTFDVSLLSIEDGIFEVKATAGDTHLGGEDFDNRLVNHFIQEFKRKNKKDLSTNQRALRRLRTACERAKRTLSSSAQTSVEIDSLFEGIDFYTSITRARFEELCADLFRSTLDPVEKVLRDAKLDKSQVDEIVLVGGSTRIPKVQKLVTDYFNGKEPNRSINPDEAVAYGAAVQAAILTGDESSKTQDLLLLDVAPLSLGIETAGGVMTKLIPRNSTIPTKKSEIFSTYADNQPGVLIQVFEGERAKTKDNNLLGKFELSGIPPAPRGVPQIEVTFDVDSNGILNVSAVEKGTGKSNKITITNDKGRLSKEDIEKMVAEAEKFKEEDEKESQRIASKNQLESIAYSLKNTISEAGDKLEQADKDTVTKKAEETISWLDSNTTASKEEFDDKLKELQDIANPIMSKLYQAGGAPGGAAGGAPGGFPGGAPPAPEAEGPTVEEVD

One may read the Kd as a measure of binding affinity in units of concentration. Read a low Kd as higher affinity. For `CCn1c(=O)/c(=C2\Sc3ccccc3N2C)s/c1=C\c1ccccn1` [YM-08, (2Z,5E)-3-ethyl-5-(3-methylbenzo[d]thiazol-2(3H)-ylidene)-2-(pyridin-2-ylmethylene)thiazolidin-4-one], the “AUCinf in the brain” value in data set [1] (6.6 mg/kg i.v.) amounted to 0.26 µg·h/g. The half-life was 408 min in data set [1] (female, CD-1, mouse, brain, iv, 6.6 mg/kg i.v., read-out: terminal halftime in the brain (t1/2; brain) (converted)); 588 min in data set [1] (female, CD-1, mouse, plasma, iv, 6.6 mg/kg i.v., read-out: t1/2, plasma (converted)); < 3 min in data set [3]; 2 to 4 min in data set [4]; ~4 min in data set [4] (figure legend). In addition, the Kp at 18 h in data set [1] (female, CD-1, mouse, brain/plasma, iv, 6.6 mg/kg, 6.6 mg/kg i.v., for 18 hrs, read-out: brain:plasma (B/P) ratio) was ~0.25. For the same compound, the AUC(0-inf) in data set [1] (female, CD-1, mouse, plasma, iv, 6.6 mg/kg i.v., read-out: AUCinf in plasma) is 13600 ng·h/mL. Besides, the peak brain concentration in data set [1] (single 6.6 mg/kg i.v., Cremophor mixture) was found to be 4 µg/g. The phospho-tau level result in data set [2] was “reduced phospho-tau”. On human Hsc70NBD, the dissociation constant (Kd) was ~2.3 µM and ~4 µM. Besides, the “ATP turnover, Hlj1-stimulated ATPase activity” value in data set [5] (Ssa1 plus Hlj1) was “partially inhibited”. In addition, in data set [5] (without Hlj1), the “intrinsic ATPase activity of Ssa1” value was “minimal effect”.
